This is an account of results in patent US9006388B2, “Covalent attachment of ligands to nucleophilic proteins guided by non-covalent” (priority 2003, dated 2015).

In data set [1] the test system is human polyclonal IgG HS-2. The data set can be described thus: Irreversible inhibition of HS-2 IgG-catalyzed [Tyr10-125I]-VIP cleavage. To be noted: IgG 2 μM preincubated 16 h, unreacted CAL removed. In kind it is biochemical.
Data set [2] concerns IgG. In kind it is biochemical, human.
For data set [3], the system named is human IgG. In kind it is binding.
Data set [4] has as its system nine purified proteins. The data set can be described thus: Screening of purified proteins for irreversible hapten CAL binding. To be noted: protein 1 μM, CAL 0.5 mM, 16 h, 37° C.
The target of data set [5] is T1, gp120 (MN strain) (Human immunodeficiency virus type 1 group M subtype B, UniProt P05877).
T1 construct: purchased
The data set can be described thus: Irreversible hapten CAL binding by gp120. Also noted: species or system HIV.

Data set [6] addresses T2, trypsin (Sus scrofa, UniProt P00761).
T2 construct: purchased Sigma type IX
The data set can be described thus: Irreversible hapten CAL binding by trypsin. Also noted: species or system porcine. The settings on record: hapten CAL 100 μM.

Data set [7] relates to murine splenocytes. The data set can be described thus: Hapten CAL I reactivity with spleen cells (microscopy, flow cytometry). In kind it is cell-based, BALB/c mouse. The text has this: BCR covalent reaction with hapten CALs. hapten CALs such as compound I (FIG. 19) react irreversibly with nucleophilic sites in conventional serine proteases and Abs (3,35,44-47). Methods for synthesis of this compound, preparation of B cells from mice, flow cytometric analysis of binding to the cells and electrophoretic measurement of covalent binding to Ig subunits are described in refs 3,35,48. To evaluate the nucleophilic reactivity expressed on the surface of B cells in the preimmune repertoire (viz., the repertoire developed spontaneously without purposeful immunological challenge), viable splenocytes from BALB/c mice were treated with hapten CAL I. The control compound II is identical in structure to hapten CAL I, except that the phosphonate group is not esterified, which results in loss of covalent reactivity with nucleophilic residues (3,35). […] Flow cytometry confirmed the microscopy results. […] In 3 repeat experiments, the proportion of hapten CAL I-stained cells that were positive for the B cell marker CD19 was 82±4% (FIG. 20B). […] Most of the CAL fluorescence was restricted to the surfaces of the B cells (FIG. 20F).
Background: A flow cytometer gives signals particle by particle.

For data set [8], the system named is plasma proteins. The data set can be described thus: CAL reaction in the presence of human plasma. In kind it is binding. To be noted: human plasma 1% v/v, CAL 10 μM, 1 h.
Data set [9] concerns monoclonal anti-VIP IgG clone c23.5. Briefly: Covalent CAL binding by monoclonal anti-VIP IgG c23.5.
Data set [10] addresses calmodulin (Homo sapiens, UniProt P0DP23). The data set can be described thus: Irreversible CAL binding by calmodulin.
Setting [11] is: flow cytometry, 100 μM, 4 hours.

T2 sequence (P00761 9-231): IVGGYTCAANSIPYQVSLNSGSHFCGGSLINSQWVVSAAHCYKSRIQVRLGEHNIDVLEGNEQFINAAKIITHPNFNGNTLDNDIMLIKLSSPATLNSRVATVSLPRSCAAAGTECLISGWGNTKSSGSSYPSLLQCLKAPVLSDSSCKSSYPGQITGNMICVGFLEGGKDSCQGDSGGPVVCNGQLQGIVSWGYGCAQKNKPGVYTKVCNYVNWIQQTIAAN

In the case of `N=C(N)c1ccc(C(NC(=O)CCCCCNC(=O)CCCC[C@@H]2SC[C@@H]3NC(=O)N[C@@H]32)P(=O)(Oc2ccccc2)Oc2ccccc2)cc1` (some centres unmarked) [hapten CAL I, Diphenyl N-(6-biotinamidohexanoyl)amino(4-amidinophenyl)methanephosphonate], 36 µM corresponded to half-maximal inhibition in data set [1] (IC50). Moreover, the “inhibition of IgG-catalyzed peptide-MCA cleavage” value in [2] is on record as “inhibited”. In addition, in data set [3], the “velocity for IgG relative to trypsin” value is on record as 14.5 fold and the “velocity of covalent I adduct formation with IgG” value is recorded as 172.7±14.2 AAU/min. The “proteins forming irreversible adducts” value in data set [4] was “Seven of the nine”. Besides, the Kd in [5] worked out at 710 ± 500 µM. In data set [5] (pH 7.4, 37° C.), the “first-order rate constant of covalent adduct formation k2” value amounted to 0.015 ± 0.007 min⁻¹. The “velocity of covalent I adduct formation with trypsin” value in [6] is 11.9±0.6 AAU/min. Further, in [7], the “loss of viability of cells (trypan blue exclusion)” value is reported as “No loss of viability”. Moreover, the “proportion of hapten CAL I-stained cells positive for CD19” value in data set [7] (3 repeat experiments) was determined as 82±4%. Moreover, the “cells displaying intense staining” value in data set [7] (UV microscope, 400 lymphocytes counted, N 3) is on record as 11±2. Also, in data set [7] (setting [11]), the “cells with fluorescence intensities exceeding compound II-treated cells” value is reported as “Seventy nine” and the “subpopulation with very high fluorescence intensity” value is reported as 14%. In addition, the “reaction with plasma proteins” value in data set [8] is listed as “little or no adduct formation”. The “Vapp values for the two subunits of anti-VIP Ab” value in data set [9] is reported as “nearly equivalent”. The “second-order rate constant for reaction with calmodulin” value in [10] (calmodulin 1 μM, 3 10 μM or 1 0.5 mM, 37° C.) is 0.00353 ± 0.000283 M⁻¹ s⁻¹.
In the case of “VIP: 28 amino acid peptide, devoid of the phosphonate group [reference compound]”, in [10] (VIP 100 μM, 3 10 μM), the “inhibition of 3-calmodulin binding” value worked out at 65%.

As usually defined, the IC50 is the concentration that inhibits the measured activity by half. Higher therefore signals lower potency. In general, Kd refers to the constant that tells how readily two partners part at equilibrium. Read a low Kd as higher affinity.
